Assay results published in ChEMBL document CHEMBL3132858, “6-Alkyl-, 6-aryl- or 6-hetaryl-7-deazapurine ribonucleosides as inhibitors of human or MTB adenosine kinase and potential antimycobacterial agents” (Medchemcomm, 2013).
Active and inactive are the calls of the source. The calls are words filed in the database; no cut-off is given here.

Legend:
[1] = molecular target: Adenosine kinase (Mycobacterium tuberculosis (strain CDC 1551 / Oshkosh)) (UniProt P9WID4); assay: Activity of Mycobacterium tuberculosis ADK assessed as compound conversion to 5'-phosphate form incubated at 37 degC for 20 mins by HPLC method
Sequence of Adenosine kinase (Mycobacterium tuberculosis (strain CDC 1551 / Oshkosh)) (P9WID4 2-324 limits assumed): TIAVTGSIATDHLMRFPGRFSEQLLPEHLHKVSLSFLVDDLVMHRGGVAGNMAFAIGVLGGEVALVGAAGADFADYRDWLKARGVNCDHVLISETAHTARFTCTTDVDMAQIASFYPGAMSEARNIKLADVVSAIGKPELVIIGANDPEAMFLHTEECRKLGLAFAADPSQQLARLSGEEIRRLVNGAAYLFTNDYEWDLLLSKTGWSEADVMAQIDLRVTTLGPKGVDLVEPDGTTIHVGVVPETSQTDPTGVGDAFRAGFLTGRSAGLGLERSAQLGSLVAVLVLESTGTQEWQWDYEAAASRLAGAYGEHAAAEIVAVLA

[2] = molecular target: Adenosine kinase (Mycobacterium tuberculosis (strain CDC 1551 / Oshkosh), UniProt P9WID4); assay: Inhibition of Mycobacterium tuberculosis ADK using [3H]-adenosine by scintillation counting method
Sequence of Adenosine kinase (Mycobacterium tuberculosis (strain CDC 1551 / Oshkosh), UniProt P9WID4) (P9WID4 whole entry): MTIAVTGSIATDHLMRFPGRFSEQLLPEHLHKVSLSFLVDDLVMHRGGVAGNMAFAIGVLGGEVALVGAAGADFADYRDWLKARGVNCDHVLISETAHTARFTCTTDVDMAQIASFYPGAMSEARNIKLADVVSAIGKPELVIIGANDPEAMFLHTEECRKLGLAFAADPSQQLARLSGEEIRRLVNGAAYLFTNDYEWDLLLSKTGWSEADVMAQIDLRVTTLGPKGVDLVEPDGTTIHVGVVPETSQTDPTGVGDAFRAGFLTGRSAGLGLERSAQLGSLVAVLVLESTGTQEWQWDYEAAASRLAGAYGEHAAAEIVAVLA

[3] = molecular target: T1, Adenosine kinase (Homo sapiens, UniProt P55263); assay: Inhibition of human ADK using [3H]-adenosine by scintillation counting method
Target sequence in this assay (P55263 whole entry): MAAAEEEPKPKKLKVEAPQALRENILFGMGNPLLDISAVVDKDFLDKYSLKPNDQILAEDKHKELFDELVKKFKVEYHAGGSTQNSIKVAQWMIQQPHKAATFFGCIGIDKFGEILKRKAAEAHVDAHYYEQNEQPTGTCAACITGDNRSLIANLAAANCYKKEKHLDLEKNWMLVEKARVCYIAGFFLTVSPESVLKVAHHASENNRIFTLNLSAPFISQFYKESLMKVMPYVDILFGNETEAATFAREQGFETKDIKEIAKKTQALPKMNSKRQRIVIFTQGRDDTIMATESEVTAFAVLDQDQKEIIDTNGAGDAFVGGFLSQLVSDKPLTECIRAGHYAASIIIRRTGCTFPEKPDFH

[4] = molecular target: T1, Adenosine kinase; assay: Activity of human ADK assessed as compound conversion to 5'-phosphate form incubated at 37 degC for 20 mins by HPLC method; parameters: concentration or dose not given beside the values
Target sequence in this assay (P55263 2-362 limits assumed): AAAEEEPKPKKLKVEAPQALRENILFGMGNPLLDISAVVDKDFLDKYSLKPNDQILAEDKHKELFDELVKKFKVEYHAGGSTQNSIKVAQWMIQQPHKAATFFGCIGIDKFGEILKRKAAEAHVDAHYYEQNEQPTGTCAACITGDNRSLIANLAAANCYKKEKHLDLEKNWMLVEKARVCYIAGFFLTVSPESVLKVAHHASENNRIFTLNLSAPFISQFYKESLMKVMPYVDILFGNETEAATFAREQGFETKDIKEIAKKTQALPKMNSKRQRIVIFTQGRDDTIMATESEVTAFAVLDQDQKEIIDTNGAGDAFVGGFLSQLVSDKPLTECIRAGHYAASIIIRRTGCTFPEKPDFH

[5] = Cytotoxicity against human BJ cells after 72 hrs by MTT assay; type: cell-based
[6] = Cytotoxicity against human MRC5 cells after 72 hrs by MTT assay; type: cell-based

SMILES | Activity [1] | IC50 [2] [µM] | IC50 [3] [µM] | Activity [4] [%] | CC50 at 72 h [5] [µM] | CC50 at 72 h [6] [µM]
OC[C@H]1O[C@@H](n2cc(F)c3c(-c4ccsc4)ncnc32)[C@H](O)[C@@H]1O | inactive | 0.063 | > 10 | 51 | 0.62 | 50
CCCCCCCCCCCCCCCCCCOP(=O)(O)OC[C@H]1O[C@@H](n2ccc3c(-c4ccccc4)ncnc32)[C@H](O)[C@@H]1O | inactive | > 20 | 4.4 |  | > 50 | > 50
OC[C@H]1O[C@@H](n2cc(F)c3c(-c4ccco4)ncnc32)[C@H](O)[C@@H]1O | inactive | 0.19 | 1.3 | 50 | 0.31 | 29
OC[C@H]1O[C@@H](n2cc(Cl)c3c(-c4ccsc4)ncnc32)[C@H](O)[C@@H]1O | inactive | 0.25 | > 10 | 97 | 1.72 | > 50
CCCCCCCCCCCCCCCCCCOP(=O)(O)OC[C@H]1O[C@@H](n2ccc3c(-c4cccs4)ncnc32)[C@H](O)[C@@H]1O | inactive | > 20 | 1.97 |  |  | 
OC[C@H]1O[C@@H](n2cc(Cl)c3c(-c4ccoc4)ncnc32)[C@H](O)[C@@H]1O | inactive | 0.3 | 3.4 | 100 | 21.6 | > 50
Cc1ncnc2c1ccn2[C@@H]1O[C@H](CO)[C@@H](O)[C@H]1O | inactive | 8.8 | > 10 | 54 | 0.098 | 0.081
OC[C@H]1O[C@@H](n2ccc3c(-c4ccc[se]4)ncnc32)[C@H](O)[C@@H]1O | inactive | 0.03 | > 10 | 43 | 1.52 | > 50
OC[C@H]1O[C@@H](n2cc(F)c3c(-c4cc[nH]c4)ncnc32)[C@H](O)[C@@H]1O | inactive | 0.4 | > 10 | 97 | 2.02 | 48.9
OC[C@H]1O[C@@H](n2ccc3c(-c4ccsc4)ncnc32)[C@H](O)[C@@H]1O | inactive | 0.195 | > 10 | 56 | 21.3 | > 50
OC[C@H]1O[C@@H](n2ccc3c(-c4cc5ccccc5o4)ncnc32)[C@H](O)[C@@H]1O | inactive | 0.0145 | 2.1 |  | > 50 | > 50
OC[C@H]1O[C@@H](n2ccc3c(-c4nccs4)ncnc32)[C@H](O)[C@@H]1O | inactive | 0.023 | > 20 | 41 | 0.26 | 37
CCCCCCCCCCCCCCCCCCOP(=O)(O)OC[C@H]1O[C@@H](n2ccc3c(-c4ccsc4)ncnc32)[C@H](O)[C@@H]1O | inactive | > 20 | 6.35 |  | > 50 | > 50
OC[C@H]1O[C@@H](n2ccc3c(-c4cn[nH]c4)ncnc32)[C@H](O)[C@@H]1O | inactive | 0.67 | > 20 | 7 | 42.1 | > 50
OC[C@H]1O[C@@H](n2ccc3c(-c4c[nH]cn4)ncnc32)[C@H](O)[C@@H]1O | inactive | 0.78 | > 10 | 28 | 0.21 | > 50
OC[C@H]1O[C@@H](n2ccc3c(-c4ccccn4)ncnc32)[C@H](O)[C@@H]1O | inactive | 0.12 | > 10 | 39 | 1.74 | > 50
OC[C@H]1O[C@@H](n2ccc3c(-c4ccccc4)ncnc32)[C@H](O)[C@@H]1O | inactive | 0.12 | > 10 |  | 44.1 | > 50
COc1ccc(-c2ncnc3c2ccn3[C@@H]2O[C@H](CO)[C@@H](O)[C@H]2O)cc1 | inactive | 0.058 | > 10 |  | > 50 | > 50
OC[C@H]1O[C@@H](n2cc(F)c3c(-c4nccs4)ncnc32)[C@H](O)[C@@H]1O | inactive | 0.028 | > 20 | 75 | 0.63 | > 50
OC[C@H]1O[C@@H](n2cc(F)c3c(-c4ccccc4)ncnc32)[C@H](O)[C@@H]1O | inactive | 0.2 | > 10 | 17 | > 50 | > 50

SMILES | Activity [1] | IC50 [2] [µM] | IC50 [3] [µM] | Activity [4] [%] | CC50 at 72 h [5] [µM] | CC50 at 72 h [6] [µM]
OC[C@H]1O[C@@H](n2ccc3c(-c4cc5ccccc5s4)ncnc32)[C@H](O)[C@@H]1O | inactive | 0.0075 | 0.3 |  | > 50 | > 50
OC[C@H]1O[C@@H](n2ccc3c(-c4cc[nH]c4)ncnc32)[C@H](O)[C@@H]1O | inactive | 0.3 | > 10 | 70 | 1.87 | 40.1
OC[C@H]1O[C@@H](n2cc(Cl)c3c(-c4ccco4)ncnc32)[C@H](O)[C@@H]1O | inactive | 0.11 | 0.29 | 77 | 37.2 | > 50
OC[C@H]1O[C@@H](n2cc(Cl)c3c(-c4ccccc4)ncnc32)[C@H](O)[C@@H]1O | inactive | 0.22 | > 10 | 29 | 44.5 | > 50
OC[C@H]1O[C@@H](n2cc(Cl)c3c(-c4cccs4)ncnc32)[C@H](O)[C@@H]1O | inactive | 0.07 | 1.2 | 100 | 4.97 | > 50
OC[C@H]1O[C@@H](n2ccc3c(-c4ccn[nH]4)ncnc32)[C@H](O)[C@@H]1O | inactive | 0.059 | > 20 | 31 | 43.9 | 1.16
OC[C@H]1O[C@@H](n2ccc3c(-c4ccoc4)ncnc32)[C@H](O)[C@@H]1O | inactive | 0.32 | > 10 | 32 | 1.2 | 45.4
OC[C@H]1O[C@@H](n2ccc3c(-c4cccc5c4Oc4ccccc4S5)ncnc32)[C@H](O)[C@@H]1O | inactive | 1.46 | 3.07 |  | > 50 | > 50
OC[C@H]1O[C@@H](n2ccc3c(-c4cccnc4)ncnc32)[C@H](O)[C@@H]1O | inactive | 1 | > 10 |  | 50 | > 50
OC[C@H]1O[C@@H](n2ccc3c(-c4cc5ccccc5[nH]4)ncnc32)[C@H](O)[C@@H]1O | inactive | 0.04 | 8.35 |  | > 50 | > 50
OC[C@H]1O[C@@H](n2ccc3c(-c4cccc5c4sc4ccccc45)ncnc32)[C@H](O)[C@@H]1O | inactive | 0.15 | 15.4 |  | > 50 | 43.8
OC[C@H]1O[C@@H](n2ccc3c(Cc4ccccc4)ncnc32)[C@H](O)[C@@H]1O | inactive | > 20 | > 20 |  | 36.9 | > 50
CCc1ncnc2c1ccn2[C@@H]1O[C@H](CO)[C@@H](O)[C@H]1O | inactive | 8.1 | > 20 |  | 2.7 | 50
OC[C@H]1O[C@@H](n2cc(F)c3c(-c4ccoc4)ncnc32)[C@H](O)[C@@H]1O | inactive | 0.15 | > 10 |  | 0.35 | 15.4
CCCCCCCCCCCCCCCCCCOP(=O)(O)OC[C@H]1O[C@@H](n2ccc3c(-c4cc5ccccc5o4)ncnc32)[C@H](O)[C@@H]1O | inactive | > 20 | 2.9 |  | > 50 | > 50
OC[C@H]1O[C@@H](n2ccc3c(-c4cccs4)ncnc32)[C@H](O)[C@@H]1O | inactive | 0.046 | > 5 |  | 0.31 | > 50
OC[C@H]1O[C@@H](n2cc(Cl)c3c(-c4ccc(F)cc4)ncnc32)[C@H](O)[C@@H]1O | inactive | 0.4 | > 20 |  | 49.5 | > 50
CCCCCCCCCCCCCCCCCCOP(=O)(O)OC[C@H]1O[C@@H](n2ccc3c(-c4ccco4)ncnc32)[C@H](O)[C@@H]1O | inactive | > 20 | 2.4 |  | > 50 | 45.3
OC[C@H]1O[C@@H](n2ccc3c(-c4cccc5c4oc4ccccc45)ncnc32)[C@H](O)[C@@H]1O | inactive | 2.35 | 5.26 |  | > 50 | > 50
CCCCCCCCCCCCCCCCCCOP(=O)(O)OC[C@H]1O[C@@H](n2ccc3c(-c4ccoc4)ncnc32)[C@H](O)[C@@H]1O | inactive | > 20 | 5.15 |  | 44.2 | > 50
